# From patent US20250388592A1 (REMYND N.V., priority 2022, published 2025)
# System: M17_3TAU(P301L) cells
# Experiment: TAU-induced cytotoxicity (LDH) in the neuroblastoma tauopathy model
# Type: cell-based
# Conditions: Homo sapiens, 168 h, inhibition of TAU-induced toxicity, 7 days retinoic acid differentiation, LDH readout
# How it was run: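 Stably transfected BE-M17 cells expressing human TAU-P301L, seeded in serum-free detection medium, then differentiated with 2.5 μM RA (added in equal volume) for 7 days at 37° C/5% CO2 to induce TAU aggregation. Cytotoxicity = supernatant LDH increase over total LDH; EC50 from dose-dependent inhibition curves.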
row,SMILES,EC50
1,O=C(NC1CCC(F)(F)CC1)N1CC2(CN(Cc3ccc(F)cn3)C2)C1 [Cpd B205],263 nM
2,O=C(NC1CCC(F)(F)CC1)N1CC2(CN(Cc3ncccc3C(F)(F)F)C2)C1 [Cpd B206],31 nM
3,O=C(NC1CCC(F)(F)CC1)N1CC2(CN(Cc3ccccc3C(F)(F)F)C2)C1 [Cpd B207],17.8 nM
4,O=C(NC1CCC(F)(F)CC1)N1CC2(CN(Cc3c(F)cccc3C(F)(F)F)C2)C1 [Cpd B208],252 nM
5,Cn1cc(Cl)c(CN2CC3(C2)CN(C(=O)NC2CCC(F)(F)CC2)C3)n1 [Cpd B209],15.2 nM
6,Cc1csc(CN2CC3(C2)CN(C(=O)NC2CCC(F)(F)CC2)C3)c1 [Cpd B210],14.6 nM
7,"Cc1cccnc1CN1CC2(C1)CN(S(=O)(=O)CCc1ccccc1)C2 [Cpd B211, 2-((3-methylpyridin-2-yl)methyl)-6-((phenethyl)sulfonyl)-2,6-diazaspiro[3.3]heptane]",94.8 nM
8,Cc1cccnc1CN1CC2(C1)CN(S(=O)(=O)Cc1cccc(C(F)(F)F)c1)C2 [Cpd B212],4.94 nM
9,Cc1cccnc1CN1CC2(C1)CN(S(=O)(=O)Cc1ccc(F)cc1)C2 [Cpd B213],14.6 nM
10,Cc1nc(CN2CC3(C2)CN(S(=O)(=O)Cc2cccc(C(F)(F)F)c2)C3)cs1 [Cpd B215],3.73 nM
11,O=S(=O)(Cc1ccc(C(F)(F)F)cc1)N1CC2(CN(Cc3ccc(F)cc3)C2)C1 [Cpd B216],5.69 nM
12,O=S(=O)(c1ccc(OC(F)(F)F)cc1)N1CC2(CN(Cc3ccc(F)cc3)C2)C1 [Cpd B217],0.46 nM
13,O=S(=O)(Cc1cccc(Cl)c1)N1CC2(CN(Cc3ccc(F)cc3)C2)C1 [Cpd B218],16.8 nM
14,COc1cccc(CN2CC3(C2)CN(S(=O)(=O)c2ccc(OC(F)(F)F)cc2)C3)c1 [Cpd B219],8.34 nM
15,COc1cccc(CN2CC3(C2)CN(S(=O)(=O)c2ccc(C(F)(F)F)cc2)C3)c1 [Cpd B220],33.9 nM
16,COc1cccc(CN2CC3(C2)CN(S(=O)(=O)Cc2ccc(F)cc2)C3)c1 [Cpd B221],18.6 nM
17,COc1cccc(CN2CC3(C2)CN(S(=O)(=O)Cc2ccc(C(F)(F)F)cc2)C3)c1 [Cpd B224],12.2 nM
18,"COc1cccc(CN2CC3(CN(Cc4ccc(Cl)cc4)C3)C2)c1 [Cpd B225, 2-(4-chlorobenzyl)-6-(3-methoxybenzyl)-2,6-diazaspiro[3.3]heptane]",5.27 nM
19,COc1cccc(CN2CC3(CN(Cc4ccc(F)cc4)C3)C2)c1 [Cpd B226],1.16 nM

row,SMILES,EC50
1,"Fc1ccc(Cc2nsc(NC3CC4(CC(NCc5ccccc5)C4)C3)n2)cc1 (stereo not shown) [Cpd B301, N-benzyl-N′-(3-(4-fluorobenzyl)-1,2,4-thiadiazol-5-yl) spiro[3.3]heptane-2,6-diamine]",11.2 nM
2,"CN(Cc1ccccc1)C1CC2(CC(Nc3nc(Cc4ccc(F)cc4)ns3)C2)C1 (stereo not shown) [Cpd B302, N-benzyl-N′-(3-(4-fluorobenzyl)-1,2,4-thiadiazol-5-yl)-N-methyl spiro[3.3]heptane-2,6-diamine]",0.9 nM
3,"Clc1ccc(CNC2CC3(C2)CC(Nc2nc(Cc4ccc(Cl)cc4)ns2)C3)cc1 (stereo not shown) [Cpd B303, N-(4-chlorobenzyl)-N′-(3-(4-chlorobenzyl)-1,2,4-thiadiazol-5-yl) spiro[3.3]heptane-2,6-diamine]",11.8 nM
4,"FC(F)(F)c1ccc(CNC2CC3(C2)CC(Nc2nc(Cc4ccc(Cl)cc4)ns2)C3)cc1 (stereo not shown) [Cpd B304, N-(3-(4-chlorobenzyl)-1,2,4-thiadiazol-5-yl)-N′-(4-(trifluoromethyl)benzyl) spiro[3.3]heptane-2,6-diamine]",31.5 nM
5,"COc1ccccc1CNC1CC2(C1)CC(Nc1nc(Cc3ccc(Cl)cc3)ns1)C2 (stereo not shown) [Cpd B305, N-(3-(4-chlorobenzyl)-1,2,4-thiadiazol-5-yl)-N′-(2-methoxybenzyl) spiro[3.3]heptane-2,6-diamine]",2.2 nM
6,"Clc1ccc(Cc2nsc(NC3CC4(CC(NCc5ccc(Cl)c(Cl)c5)C4)C3)n2)cc1 (stereo not shown) [Cpd B306, N-(3-(4-chlorobenzyl)-1,2,4-thiadiazol-5-yl)-N′-(3,4-dichlorobenzyl) spiro[3.3]heptane-2,6-diamine]",35.7 nM
7,"Clc1ccc(Cc2nsc(NC3CC4(CC(NCc5ccc(Cl)cc5Cl)C4)C3)n2)cc1 (stereo not shown) [Cpd B307, N-(3-(4-chlorobenzyl)-1,2,4-thiadiazol-5-yl)-N′-(2,4-dichlorobenzyl) spiro[3.3]heptane-2,6-diamine]",1.3 nM
8,"Clc1ccc(Cc2nsc(NC3CC4(CC(NCc5cc(Cl)ccc5Cl)C4)C3)n2)cc1 (stereo not shown) [Cpd B308, N-(3-(4-chlorobenzyl)-1,2,4-thiadiazol-5-yl)-N′-(2,5-dichlorobenzyl) spiro[3.3]heptane-2,6-diamine]",3.8 nM
9,"Cc1cc(CNC2CC3(C2)CC(Nc2nc(Cc4ccc(Cl)cc4)ns2)C3)ccc1F (stereo not shown) [Cpd B309, N-(3-(4-chlorobenzyl)-1,2,4-thiadiazol-5-yl)-N′-(4-fluoro-3-methylbenzyl) spiro[3.3]heptane-2,6-diamine]",12 nM
10,"COc1cccc(CNC2CC3(C2)CC(Nc2nc(Cc4ccc(Cl)cc4)ns2)C3)c1 (stereo not shown) [Cpd B310, N-(3-(4-chlorobenzyl)-1,2,4-thiadiazol-5-yl)-N′-(3-methoxybenzyl) spiro[3.3]heptane-2,6-diamine]",4.6 nM
11,"COc1cccc(OC)c1CNC1CC2(C1)CC(Nc1nc(Cc3ccc(Cl)cc3)ns1)C2 (stereo not shown) [Cpd B311, N-(3-(4-chlorobenzyl)-1,2,4-thiadiazol-5-yl)-N′-(2,6-dimethoxybenzyl) spiro[3.3]heptane-2,6-diamine]",4 nM
12,"Fc1ccccc1CNC1CC2(C1)CC(Nc1nc(Cc3ccc(Cl)cc3)ns1)C2 (stereo not shown) [Cpd B312, N-(3-(4-chlorobenzyl)-1,2,4-thiadiazol-5-yl)-N′-(2-fluorobenzyl) spiro[3.3]heptane-2,6-diamine]",2.2 nM
13,"COc1ccc(CNC2CC3(C2)CC(Nc2nc(Cc4ccc(Cl)cc4)ns2)C3)cc1F (stereo not shown) [Cpd B313, N-(3-(4-chlorobenzyl)-1,2,4-thiadiazol-5-yl)-N′-(3-fluoro-4-methoxybenzyl) spiro[3.3]heptane-2,6-diamine]",2.9 nM
14,"COc1cccc(CNC2CC3(C2)CC(Nc2nc(Cc4ccc(Cl)cc4)ns2)C3)c1OC (stereo not shown) [Cpd B314, N-(3-(4-chlorobenzyl)-1,2,4-thiadiazol-5-yl)-N′-(2,3-dimethoxybenzyl) spiro[3.3]heptane-2,6-diamine]",3 nM
15,"CCOc1ccccc1CNC1CC2(C1)CC(Nc1nc(Cc3ccc(Cl)cc3)ns1)C2 (stereo not shown) [Cpd B315, N-(3-(4-chlorobenzyl)-1,2,4-thiadiazol-5-yl)-N′-(2-ethoxybenzyl) spiro[3.3]heptane-2,6-diamine]",4 nM
16,"COc1ccc(CNC2CC3(C2)CC(Nc2nc(Cc4ccc(Cl)cc4)ns2)C3)c(OC)c1 (stereo not shown) [Cpd B316, N-(3-(4-chlorobenzyl)-1,2,4-thiadiazol-5-yl)-N′-(2,4-dimethoxybenzyl) spiro[3.3]heptane-2,6-diamine]",3.1 nM
17,"COc1ccc(CNC2CC3(C2)CC(Nc2nc(Cc4ccc(Cl)cc4)ns2)C3)cc1OC (stereo not shown) [Cpd B317, N-(3-(4-chlorobenzyl)-1,2,4-thiadiazol-5-yl)-N′-(3,4-dimethoxybenzyl) spiro[3.3]heptane-2,6-diamine]",41 nM
18,"COc1ccc(CNC2CC3(C2)CC(Nc2nc(Cc4ccc(Cl)cc4)ns2)C3)cc1 (stereo not shown) [Cpd B318, N-(3-(4-chlorobenzyl)-1,2,4-thiadiazol-5-yl)-N′-(4-methoxybenzyl) spiro[3.3]heptane-2,6-diamine]",10.1 nM
